Laboratory results from the supplement of paper PMC10307832.

Experiments:
Experiment in all cases: relative viability (nuclei count vs DMSO), 5 days (fraction); higher = more cells survive
AZ505 + Pemetrexed = compound: C1CCC(CC1)N(CCNCCC2=C3C(=C(C=C2)O)NC(=O)CO3)C(=O)CCNCCC4=CC(=C(C=C4)Cl)Cl [AZ505] + Nc1nc2[nH]cc(CCc3ccc(C(=O)N[C@@H](CCC(=O)O)C(=O)O)cc3)c2c(=O)[nH]1 [Pemetrexed] (partner 0.2 µM)
Summary of the method: (§1)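 Relative viability equals treated-well nuclei counts divided by vehicle-well nuclei counts. Counts came from 4× images of lung cancer cell lines grown in 1536-well plates for 5 days after pin-tool dosing on the day after seeding. Dosing used one drug alone or a fixed anchor-drug dose plus five library-drug doses (not always all listed) in √10 steps, and values are medians of duplicate plates.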

Dactolisib + Olaparib = compound: Cn1c(=O)n(-c2ccc(C(C)(C)C#N)cc2)c2c3cc(-c4cnc5ccccc5c4)ccc3ncc21 [Dactolisib] + O=C(c1cc(Cc2n[nH]c(=O)c3ccccc23)ccc1F)N1CCN(C(=O)C2CC2)CC1 [Olaparib] (partner 8 µM)
Summary of the method: as §1

Dactolisib + OSI-027 = compound: Cn1c(=O)n(-c2ccc(C(C)(C)C#N)cc2)c2c3cc(-c4cnc5ccccc5c4)ccc3ncc21 [Dactolisib] + COc1cccc2cc(-c3nc([C@H]4CC[C@H](C(=O)O)CC4)n4ncnc(N)c34)[nH]c12 [OSI-027] (partner 0.5 µM)
Summary of the method: as §1

Dactolisib + Decitabine = compound: Cn1c(=O)n(-c2ccc(C(C)(C)C#N)cc2)c2c3cc(-c4cnc5ccccc5c4)ccc3ncc21 [Dactolisib] + Nc1ncn([C@H]2C[C@H](O)[C@@H](CO)O2)c(=O)n1 [Decitabine] (partner 2 µM)
Summary of the method: as §1

Cell Line	relative viability (AZ505 + Pemetrexed; first compound 0.08 µM)	relative viability (AZ505 + Pemetrexed; first compound 0.253 µM)	relative viability (AZ505 + Pemetrexed; first compound 0.8 µM)	relative viability (AZ505 + Pemetrexed; first compound 2.53 µM)	relative viability (AZ505 + Pemetrexed; first compound 8 µM)	relative viability (Dactolisib + Olaparib; first compound 0.002 µM)	relative viability (Dactolisib + Olaparib; first compound 0.006325 µM)	relative viability (Dactolisib + Olaparib; first compound 0.02 µM)	relative viability (Dactolisib + Olaparib; first compound 0.06325 µM)	relative viability (Dactolisib + Olaparib; first compound 0.2 µM)	relative viability (Dactolisib + OSI-027; first compound 0.002 µM)	relative viability (Dactolisib + OSI-027; first compound 0.006325 µM)	relative viability (Dactolisib + OSI-027; first compound 0.02 µM)	relative viability (Dactolisib + OSI-027; first compound 0.06325 µM)	relative viability (Dactolisib + OSI-027; first compound 0.2 µM)	relative viability (Dactolisib + Decitabine; first compound 0.002 µM)	relative viability (Dactolisib + Decitabine; first compound 0.006325 µM)	relative viability (Dactolisib + Decitabine; first compound 0.02 µM)	relative viability (Dactolisib + Decitabine; first compound 0.06325 µM)	relative viability (Dactolisib + Decitabine; first compound 0.2 µM)
NCI-H838	0.251	0.253	0.252	0.246	0.221	0.924	0.657	0.43	0.273	0.208	0.424	0.477	0.317	0.252	0.274	0.603	0.446	0.4	0.289	0.286
SW 900	0.495	0.516	0.494	0.498	0.511	1.22	0.853	0.689	0.502	0.424	0.495	0.419	0.474	0.244	0.213	0.546	0.443	0.405	0.409	0.425
A549	–	–	–	–	–	0.286	0.302	0.244	0.122	0.0942	–	–	–	–	–	0.34	0.292	0.248	0.204	0.12
NCI-H1703	–	–	–	–	–	–	0.292	0.389	0.198	0.285	–	–	–	–	–	–	–	–	–	–
Calu-6	–	–	–	–	–	0.553	0.642	0.688	0.469	0.458	–	–	–	–	–	–	–	–	–	–
EBC-1	–	–	–	–	–	0.809	0.645	0.648	0.19	0.176	–	–	–	–	–	–	–	–	–	–
NCI-H1299	–	–	–	–	–	1.01	0.997	1.04	0.568	0.742	–	–	–	–	–	–	–	–	–	–
NCI-H2228	0.334	0.353	0.366	0.356	0.283	1.01	0.486	0.326	0.177	0.104	0.497	0.426	0.417	0.186	0.176	–	–	–	–	–
IA-LM	–	–	–	–	–	0.85	0.729	0.783	0.348	0.738	–	–	–	–	–	–	–	–	–	–
NCI-H727	–	–	–	–	–	–	0.79	0.874	0.699	0.629	0.519	0.435	0.538	0.47	0.4	–	0.986	1.01	0.465	0.496
CAL-12T	1.08	1.2	1.26	1.29	1.46	0.822	0.662	0.496	0.286	0.271	0.894	0.635	0.521	0.318	0.239	–	–	–	–	–
